Positions of bridges follow the written chain, without caps; N, C: chain ends. Non-standard residues stand in square brackets, D forms with d. Residues, ends and D or L forms follow the SMILES beside them.
Legend:
growth hormone = assay: Arginine-stimulated growth hormone secretion in Nembutal-anesthetized rats; format: in vivo, Albino male rats; conditions: 100 micrograms per kilogram subcutaneous; arginine into the heart 10 min later, blood 5 min after arginine; p<0.01; control 122±26 ng/ml
Description: The activity of the product of the preceding preparatory example, (des-Ala^1 -Gly^2, D-Lys^4, Trp^5, D-Trp^8)Somatostatin was determined by the following procedure:
Albino male rats were administered Nembutal intraperitoneally at a dose of 50 milligrams per kilogram. Fifteen minutes later a subcutaneous injection of the test compound or physiological saline was administered. Ten minutes later 0.5 millileters of arginine (300 milligrams per milliliter, pH 7.2) is injected into the heart. Five minutes after receipt of the arginine the rats are decapitated and blood is collected into trasylol-EDTA. […] Thus, (des-Ala^1 -Gly^2, D-Lys^4, Trp^5, D-Trp^8)Somatostatin, representative of the corresponding D-Arg^4,D-His^4, D-Orn^4, Phe^5, Tyr^5, Leu^5 and Met^5 analogues, their (Ala^1 -Gly^2)somatostatin analogues and the corresponding L-Trp^8 and D-Cys^14 analogues, is an effective agent for selectively reducing secretion of growth hormone at relatively high doses.

total acid output = assay: Four hour pylorus ligated rat test (Shay et al.), anti-secretory activity; format: in vivo; conditions: dosage between 0.25 and 2.0 mg/kg, p<0.05
From the text: Therefore, the product of Example 2 is also useful as an anti-secretory agent for the treatment of peptic ulcer disease.

C[C@@H](O)[C@@H]1NC(=O)[C@H](Cc2ccccc2)NC(=O)[C@H]([C@@H](C)O)NC(=O)[C@H](CCCCN)NC(=O)[C@@H](Cc2c[nH]c3ccccc23)NC(=O)[C@H](Cc2ccccc2)NC(=O)[C@H](Cc2ccccc2)NC(=O)[C@H](Cc2c[nH]c3ccccc23)NC(=O)[C@@H](CCCCN)NC(=O)[C@@H](N)CSSC[C@@H](C(=O)O)NC(=O)[C@H](CO)NC1=O [Example 2, L-cysteinyl-D-lysyl-L-tryptophyl-L-phenylalanyl-L-phenylalanyl-D-tryptophyl-L-lysyl-L-threonyl-L-phenylalanyl-L-threonyl-L-seryl-L-cysteine cyclic (1-12) disulfide] (H-C[dK]WFF[dW]KTFTSC-OH; disulfide 1-12)
growth hormone in blood (growth hormone): 24 ± 7 ng/mL
inhibition of total acid output (total acid output): ~50%
